Test results published in patent publication US20230109839A1, “THERAPEUTIC AGENT FOR TAUOPATHIES” (SUMITOMO PHARMA CO., LTD., priority 2020, published 2023).

Target: T1, human Nav1.1 (Homo sapiens, UniProt P35498)
T1 construct: host or cells: HEK293
Test: Amplification of Nav1.1-derived voltage-gated sodium current (Nav1.1 current), automated patch clamp (Test 1)
Format: cell-based
Conditions: HEK293, Concentration for evaluation 1 μM; HEK293 cell line stably expressing human Nav1.1; read-out: Nav1.1 current amplification rate (%)
Method in brief: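 HEK293 cells stably expressing human Nav1.1, restricted to cells with >500 pA current, were recorded by automated voltage-clamp patch clamp with a ramp voltage stimulus. Compounds were applied in HEPES-buffered extracellular solution with 1% DMSO. Amplification (%) = 100×(peak or AUC after/before compound)−100.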

| Compound | activation at 1 µM |
| --- | --- |
| CN(c1ncc2cnn(CC(=O)Nc3ccn4ncnc4c3)c2n1)C1CCCC1 [Example 795, 2-{6-[cyclopentyl(methyl)amino]-1H-pyrazolo[3,4-d]pyrimidin-1-yl}-N-([1,2,4]triazolo[1,5-a]pyridin-7-yl)acetamide] | 111% |
| CC1CC=C(c2cnc3cnn(CC(=O)Nc4ccn5ncnc5c4)c3n2)CC1 (centres unmarked) [Example 577, 2-[6-(4-methylcyclohex-1-en-1-yl)-1H-pyrazolo[3,4-b]pyrazin-1-yl]-N-([1,2,4]triazolo[1,5-a]pyridin-7-yl)acetamide] | 249% |
